Measurements as given in ChEMBL document CHEMBL1201862, “PubChem BioAssay data set” (2004).
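A five-concentration, 48-hour dose response in 96-well plates underlies each endpoint, interpolated linearly between surrounding concentrations. GI50 is the concentration that inhibits growth by half.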 The source made the active and inactive calls. Rule as the data show it: active = GI50 up to about 1.1 µM and inactive = higher.

Experiments:
Test in all cases: NCI-60 cell line screen, 48 h
OVCAR-8 = test system: OVCAR-8
RPMI-8226 = test system: RPMI-8226
T47D = test system: T47D
SK-MEL-2 = test system: SK-MEL-2
SR = test system: SR
SF-539 = test system: SF-539
U-251 = test system: U-251
RXF 393 = test system: RXF 393
IGROV-1 = test system: IGROV-1
KM12 = test system: KM12
HOP-92 = test system: HOP-92
HOP-62 = test system: HOP-62
DU-145 = test system: DU-145
SK-MEL-28 = test system: SK-MEL-28
SN12C = test system: SN12C
HCT-116 = test system: HCT-116
COLO 205 = test system: COLO 205
HCT-15 = test system: HCT-15
NCI/ADR-RES = test system: NCI/ADR-RES
CCRF-CEM = test system: CCRF-CEM
HCC 2998 = test system: HCC 2998
UACC-257 = test system: UACC-257
TK-10 = test system: TK-10
SK-MEL-5 = test system: SK-MEL-5
CAKI-1 = test system: CAKI-1
PC-3 = test system: PC-3
LOX IMVI = test system: LOX IMVI
SNB-19 = test system: SNB-19
K562 = test system: K562
SNB-75 = test system: SNB-75
BT-549 = test system: BT-549
A498 = test system: A498
MDA-MB-231 = test system: MDA-MB-231
HT-29 = test system: HT-29
OVCAR-5 = test system: OVCAR-5
SF-295 = test system: SF-295
NCI-H460 = test system: NCI-H460
MCF7 = test system: MCF7
EKVX = test system: EKVX
OVCAR-3 = test system: OVCAR-3
786-0 = test system: 786-0
MOLT-4 = test system: MOLT-4
M14 = test system: M14
HL-60 = test system: HL-60
ACHN = test system: ACHN
UACC-62 = test system: UACC-62
SW-620 = test system: SW-620
NCI-H23 = test system: NCI-H23
A549 = test system: A549
MDA-MB-435 = test system: MDA-MB-435
SK-OV-3 = test system: SK-OV-3
OVCAR-4 = test system: OVCAR-4
NCI-H226 = test system: NCI-H226
NCI-H522 = test system: NCI-H522
SF-268 = test system: SF-268
Hs-578T = test system: Hs-578T
UO-31 = test system: UO-31
MDA-N = test system: MDA-N
Malme-3M = test system: Malme-3M

SMILES: N#CC(C#N)=C1/C(=C/C=C/C=C/C=C/c2ccc(N3CCCCC3)s2)S(=O)(=O)c2ccccc21
- GI50 (OVCAR-8): 67.3 µM (inactive)
- GI50 (RPMI-8226): 36.4 µM (inactive)
- GI50 (T47D): 80.9 µM (inactive)
- GI50 (SK-MEL-2): > 100 µM (inactive)
- GI50 (SR): 50.5 µM (inactive)
- GI50 (SF-539): > 100 µM (inactive)
- GI50 (U-251): 46.7 µM (inactive)
- GI50 (RXF 393): > 100 µM (inactive)
- GI50 (IGROV-1): > 100 µM (inactive)
- GI50 (KM12): > 100 µM (inactive)
- GI50 (HOP-92): 95.9 µM (inactive)
- GI50 (HOP-62): 33.7 µM (inactive)
- GI50 (DU-145): 55 µM (inactive)
- GI50 (SK-MEL-28): > 100 µM (inactive)
- GI50 (SN12C): > 100 µM (inactive)
- GI50 (HCT-116): > 100 µM (inactive)
- GI50 (COLO 205): > 100 µM (inactive)
- GI50 (HCT-15): > 100 µM
- GI50 (NCI/ADR-RES): > 100 µM (inactive)
- GI50 (CCRF-CEM): 71.6 µM (inactive)
- GI50 (HCC 2998): > 100 µM (inactive)
- GI50 (UACC-257): > 100 µM (inactive)
- GI50 (TK-10): 81.3 µM (inactive)
- GI50 (SK-MEL-5): > 100 µM (inactive)
- GI50 (CAKI-1): > 100 µM (inactive)
- GI50 (PC-3): > 100 µM (inactive)
- GI50 (LOX IMVI): > 100 µM (inactive)
- GI50 (SNB-19): 45.3 µM (inactive)
- GI50 (K562): > 100 µM (inactive)
- GI50 (SNB-75): > 100 µM (inactive)
- GI50 (BT-549): > 100 µM (inactive)
- GI50 (A498): > 100 µM (inactive)
- GI50 (MDA-MB-231): > 100 µM (inactive)
- GI50 (HT-29): > 100 µM (inactive)
- GI50 (OVCAR-5): > 100 µM (inactive)
- GI50 (SF-295): > 100 µM (inactive)
- GI50 (NCI-H460): > 100 µM (inactive)
- GI50 (MCF7): > 100 µM (inactive)
- GI50 (EKVX): > 100 µM (inactive)
- GI50 (OVCAR-3): > 100 µM (inactive)
- GI50 (786-0): 93.1 µM (inactive)
- GI50 (MOLT-4): 14.9 µM (inactive)
- GI50 (M14): > 100 µM (inactive)
- GI50 (HL-60): > 100 µM (inactive)
- GI50 (ACHN): > 100 µM (inactive)
- GI50 (UACC-62): > 100 µM (inactive)
- GI50 (SW-620): > 100 µM (inactive)
- GI50 (NCI-H23): > 100 µM (inactive)
- GI50 (A549): > 100 µM (inactive)
- GI50 (MDA-MB-435): > 100 µM (inactive)
- GI50 (SK-OV-3): > 100 µM (inactive)
- GI50 (OVCAR-4): > 100 µM (inactive)
- GI50 (NCI-H226): > 100 µM (inactive)
- GI50 (NCI-H522): 22.1 µM (inactive)

SMILES: C=C1C(O)C[C@H](OC(C)=O)[C@]2(C)C1C(OC(C)=O)[C@]1(C(C)(C)O)CC(O)C(C)=C1[C@@H](OC(=O)c1ccccc1)C2OC(C)=O (stereo not given in full)
- GI50 (OVCAR-8): > 10 µM (inactive)
- GI50 (RPMI-8226): > 10 µM (inactive)
- GI50 (T47D): > 10 µM (inactive)
- GI50 (SK-MEL-2): > 10 µM (inactive)
- GI50 (SR): > 10 µM (inactive)
- GI50 (SF-539): > 10 µM (inactive)
- GI50 (U-251): > 10 µM (inactive)
- GI50 (RXF 393): > 10 µM (inactive)
- GI50 (IGROV-1): > 10 µM (inactive)
- GI50 (KM12): > 10 µM (inactive)
- GI50 (HOP-92): > 10 µM (inactive)
- GI50 (DU-145): > 10 µM (inactive)
- GI50 (SK-MEL-28): > 10 µM (inactive)
- GI50 (SN12C): > 10 µM (inactive)
- GI50 (SF-268): > 10 µM (inactive)
- GI50 (HCT-116): > 10 µM (inactive)
- GI50 (Hs-578T): > 10 µM (inactive)
- GI50 (COLO 205): > 10 µM (inactive)
- GI50 (HCT-15): > 10 µM
- GI50 (NCI/ADR-RES): > 10 µM (inactive)
- GI50 (CCRF-CEM): > 10 µM (inactive)
- GI50 (UACC-257): > 10 µM (inactive)
- GI50 (TK-10): > 10 µM (inactive)
- GI50 (SK-MEL-5): > 10 µM (inactive)
- GI50 (CAKI-1): > 10 µM (inactive)
- GI50 (PC-3): > 10 µM (inactive)
- GI50 (LOX IMVI): > 10 µM (inactive)
- GI50 (SNB-19): > 10 µM (inactive)
- GI50 (K562): > 10 µM (inactive)
- GI50 (SNB-75): > 10 µM (inactive)
- GI50 (A498): > 10 µM (inactive)
- GI50 (MDA-MB-231): > 10 µM (inactive)
- GI50 (HT-29): > 10 µM (inactive)
- GI50 (OVCAR-5): > 10 µM (inactive)
- GI50 (SF-295): > 10 µM (inactive)
- GI50 (UO-31): > 10 µM (inactive)
- GI50 (NCI-H460): > 10 µM (inactive)
- GI50 (MCF7): > 10 µM (inactive)
- GI50 (MDA-N): > 10 µM (inactive)
- GI50 (EKVX): > 10 µM (inactive)
- GI50 (OVCAR-3): > 10 µM (inactive)
- GI50 (786-0): > 10 µM (inactive)
- GI50 (MOLT-4): > 10 µM (inactive)
- GI50 (M14): > 10 µM (inactive)
- GI50 (HL-60): > 10 µM (inactive)
- GI50 (ACHN): > 10 µM (inactive)
- GI50 (UACC-62): > 10 µM (inactive)
- GI50 (SW-620): > 10 µM (inactive)
- GI50 (NCI-H23): > 10 µM (inactive)
- GI50 (A549): > 10 µM (inactive)
- GI50 (MDA-MB-435): > 10 µM (inactive)
- GI50 (SK-OV-3): > 10 µM (inactive)
- GI50 (OVCAR-4): > 10 µM (inactive)
- GI50 (NCI-H226): > 10 µM (inactive)
- GI50 (NCI-H522): > 10 µM (inactive)

SMILES: NS(=O)(=O)c1ccc(/C=C/c2ccc(F)cc2)cc1
- GI50 (T47D): 14.9 µM (inactive)
- GI50 (SK-MEL-2): 20.7 µM (inactive)
- GI50 (RXF 393): 15.6 µM (inactive)
- GI50 (HOP-62): 34 µM (inactive)
- GI50 (DU-145): 50.1 µM (inactive)
- GI50 (SK-MEL-28): 47.4 µM (inactive)
- GI50 (SN12C): 25.8 µM (inactive)
- GI50 (HCT-116): 16.9 µM (inactive)
- GI50 (COLO 205): 24.8 µM (inactive)
- GI50 (Malme-3M): 40.5 µM (inactive)
- GI50 (NCI/ADR-RES): 26.3 µM (inactive)
- GI50 (HCC 2998): 51.8 µM (inactive)
- GI50 (UACC-257): > 100 µM (inactive)
- GI50 (TK-10): 21.3 µM (inactive)
- GI50 (PC-3): 39 µM (inactive)
- GI50 (SNB-19): 33.9 µM (inactive)
- GI50 (SNB-75): 31.6 µM (inactive)
- GI50 (A498): 29.4 µM (inactive)
- GI50 (MDA-MB-231): 9.53 µM (inactive)
- GI50 (OVCAR-5): > 100 µM (inactive)
- GI50 (SF-295): 28.9 µM (inactive)
- GI50 (UO-31): 20.7 µM (inactive)
- GI50 (NCI-H460): 23.5 µM (inactive)
- GI50 (MCF7): 23.9 µM (inactive)
- GI50 (MDA-N): 43.5 µM (inactive)
- GI50 (EKVX): 47.3 µM (inactive)
- GI50 (OVCAR-3): 16.7 µM (inactive)
- GI50 (786-0): 21.2 µM (inactive)
- GI50 (M14): 79.4 µM (inactive)
- GI50 (SW-620): 17.1 µM (inactive)
- GI50 (SK-OV-3): 23.8 µM (inactive)
